The results in this text go back to PubChem BioAssay (NCI).

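All cell lines were grown in 96-well plates and treated with compound for 48 hours. TGI is the concentration that stops growth completely.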

Among the test systems are HOP-92 NSCLC; MDA-MB-435; SK-MEL-28 melanoma; SNB-75 CNS; KM12 colon; SF-539 CNS; OVCAR-8 ovarian; SK-OV-3 ovarian; DU-145 prostate; NCI-H522 lung; NCI-H226 lung; A498 renal; K-562 leukemia; MDA-MB-231 breast; CCRF-CEM leukemia.
Assay in all cases: NCI anticancer screen, dose series, 48 h

Take `NC1=NN(c2ccccc2)C2(O)c3ccncc3C3=NN(c4ccccc4)C(=O)C132` (stereo not given): the TGI in the assay on HOP-92 NSCLC, in the assay on MDA-MB-435, with SK-MEL-28 melanoma, in the assay with SNB-75 CNS, with KM12 colon and with SF-539 CNS was more than 100 µM throughout. The TGI in the assay on OVCAR-8 ovarian, in the assay with SK-OV-3 ovarian, with DU-145 prostate, in the assay on NCI-H522 lung, in the assay on NCI-H226 lung and in the assay with A498 renal was more than 100 µM each time. In addition, the TGI in the assay on K-562 leukemia and in the assay with MDA-MB-231 breast was more than 100 µM each time.

For `Fc1ccccc1-c1nn2c(C34CC5CC(CC(C5)C3)C4)nnc2s1`, the TGI in the assay with HOP-92 NSCLC, in the assay with MDA-MB-435, with SK-MEL-28 melanoma, in the assay on SNB-75 CNS, in the assay on SF-539 CNS and with OVCAR-8 ovarian was more than 100 µM in each case. Further, the TGI with SK-OV-3 ovarian, in the assay on DU-145 prostate, in the assay with NCI-H522 lung, with CCRF-CEM leukemia, with NCI-H226 lung and with A498 renal was more than 100 µM each time. For the same compound, the TGI in the assay on K-562 leukemia and in the assay with MDA-MB-231 breast was more than 100 µM throughout.

Take `CCOC(=O)[C@@H]1ON2O[C@H](OC3CCCC3(c3ccccc3)c3ccccc3)C[C@H]3OC(=O)[C@@H]1C32` (stereo not given in full): the TGI is more than 100 µM in the assay on HOP-92 NSCLC; 97.9 µM in the assay on MDA-MB-435; more than 100 µM in the assay on SNB-75 CNS; 85.4 µM in the assay with KM12 colon; more than 100 µM with SF-539 CNS; more than 100 µM in the assay with OVCAR-8 ovarian. In addition, the TGI was more than 100 µM in the assay with SK-OV-3 ovarian; more than 100 µM with DU-145 prostate; more than 100 µM in the assay with NCI-H522 lung; 78.3 µM with CCRF-CEM leukemia; more than 100 µM in the assay with NCI-H226 lung; 95.9 µM with A498 renal. Moreover, the TGI with K-562 leukemia and with MDA-MB-231 breast was more than 100 µM each time.

On to `COc1ccc(C(c2c[nH]c3ccc(Br)cc23)c2c[nH]c3ccc(Br)cc23)cc1`, for which the TGI with HOP-92 NSCLC was 2.07 µM; with MDA-MB-435, 0.42 µM; in the assay on SK-MEL-28 melanoma, 0.743 µM; in the assay on SNB-75 CNS it was 1.54 µM; with KM12 colon, 0.468 µM; in the assay on SF-539 CNS it was 2.06 µM. The TGI amounted to 2.58 µM in the assay on SK-OV-3 ovarian; 1.38 µM in the assay with DU-145 prostate; 0.397 µM in the assay on NCI-H522 lung; 0.436 µM in the assay with CCRF-CEM leukemia; 1.7 µM in the assay with NCI-H226 lung; 2.29 µM with A498 renal. Also, the values for the TGI in the assay on K-562 leukemia and in the assay on MDA-MB-231 breast were 0.423 µM and 0.705 µM, respectively.

`O=c1[nH]c(=S)[nH]n1C(=S)n1[nH]c(=S)[nH]c1=O`: the TGI with HOP-92 NSCLC, in the assay with MDA-MB-435, in the assay on SK-MEL-28 melanoma, in the assay on SNB-75 CNS, in the assay with KM12 colon and with SF-539 CNS was more than 100 µM throughout. Also, the TGI in the assay on OVCAR-8 ovarian, in the assay on DU-145 prostate, in the assay on NCI-H522 lung, with CCRF-CEM leukemia, in the assay on NCI-H226 lung and in the assay on A498 renal was more than 100 µM throughout. Further, the TGI in the assay on K-562 leukemia and with MDA-MB-231 breast was more than 100 µM throughout.

`C=C(Br)CN(C(C)=O)C1CCCCC1`: the TGI in the assay with MDA-MB-435, with SK-MEL-28 melanoma, in the assay on SNB-75 CNS, in the assay with KM12 colon, in the assay on SF-539 CNS and in the assay with OVCAR-8 ovarian was more than 100 µM each time. Further, the TGI in the assay on SK-OV-3 ovarian, in the assay on DU-145 prostate, in the assay on NCI-H522 lung, with CCRF-CEM leukemia, with NCI-H226 lung and in the assay on A498 renal was more than 100 µM each time. Further, the TGI in the assay with K-562 leukemia and in the assay with MDA-MB-231 breast was more than 100 µM in each case.

Regarding `O=c1cc(CBr)c2ccc(O)cc2o1`, the TGI with MDA-MB-435, with SK-MEL-28 melanoma, in the assay on SNB-75 CNS, with KM12 colon, in the assay with SF-539 CNS and in the assay with OVCAR-8 ovarian was more than 100 µM in each case. The TGI with SK-OV-3 ovarian, in the assay with DU-145 prostate, with NCI-H522 lung, with CCRF-CEM leukemia, in the assay with NCI-H226 lung and in the assay with A498 renal was more than 100 µM in each case. The TGI in the assay on K-562 leukemia and with MDA-MB-231 breast was more than 100 µM each time.

As for `CCN(CC)C(=S)SNCc1ccc(S(N)(=O)=O)cc1`, the TGI in the assay on HOP-92 NSCLC was 45.7 µM; in the assay with MDA-MB-435, more than 50.9 µM; with SK-MEL-28 melanoma it was more than 48.9 µM; in the assay on SNB-75 CNS it was 39.5 µM; in the assay on KM12 colon, 29.2 µM; with SF-539 CNS it was 32.1 µM. Besides, the TGI with OVCAR-8 ovarian was 28.4 µM; in the assay with SK-OV-3 ovarian it was more than 86 µM; in the assay on DU-145 prostate it was 33.4 µM; with NCI-H522 lung, 22.2 µM; in the assay on NCI-H226 lung it was more than 63.2 µM; in the assay on A498 renal, more than 100 µM. Moreover, the TGI was more than 100 µM in the assay on K-562 leukemia and 37.1 µM in the assay on MDA-MB-231 breast.

For `COC1=C(N2CC2)C(=O)c2nc3n(c2C1=O)CCC3`, the TGI with HOP-92 NSCLC stood at 7.74 µM; in the assay with MDA-MB-435, 3.32 µM; with SK-MEL-28 melanoma, 12.2 µM; in the assay on SNB-75 CNS, 3.57 µM; in the assay on KM12 colon it was 3.11 µM; in the assay with SF-539 CNS, 7.79 µM. In addition, the TGI with OVCAR-8 ovarian was 4.7 µM; with SK-OV-3 ovarian, 3.04 µM; in the assay on DU-145 prostate, 1.36 µM; in the assay with NCI-H522 lung, 0.385 µM; with CCRF-CEM leukemia it was 1.33 µM; with NCI-H226 lung, 4.76 µM. In addition, the TGI in the assay on A498 renal amounted to 2.86 µM; in the assay with MDA-MB-231 breast, 6.28 µM.

As for `CC1=C(C(=O)NCCc2ccccc2)CC(C(=O)NCCc2ccccc2)=C(C)N1`, the TGI with HOP-92 NSCLC was more than 100 µM; in the assay on MDA-MB-435, more than 100 µM; in the assay with SNB-75 CNS, 69.2 µM; in the assay on KM12 colon, more than 100 µM; with SF-539 CNS, more than 100 µM; with OVCAR-8 ovarian, more than 100 µM. The TGI in the assay on SK-OV-3 ovarian is more than 100 µM; in the assay on DU-145 prostate, more than 100 µM; with NCI-H522 lung, more than 100 µM; in the assay on CCRF-CEM leukemia, 76.5 µM; in the assay on NCI-H226 lung, more than 100 µM; in the assay on A498 renal it was more than 100 µM. Also, the TGI with K-562 leukemia and in the assay on MDA-MB-231 breast was more than 100 µM in each case.
